Measurements: patent US8012956B2, “Tropane compounds” (Exelixis, Inc., priority 2007, dated 2011)

Molecular target: HSP90 (Homo sapiens, UniProt P07900)
Test: HSP90 inhibition (HSP90 IC50)
Format: biochemical

| SMILES | IC50 [nM] |
| --- | --- |
| COc1cccc(C(=O)N[C@H]2C[C@H]3CC[C@@H](C2)N3c2ccc(C(=O)NCc3ccc(F)cc3)cn2)c1C [N-[(4-fluorophenyl)methyl]-6-[3-endo-({[2-methyl-3-(methyloxy)phenyl]carbonyl}amino)-8-azabicyclo[3.2.1]oct-8-yl]pyridine-3-carboxamide] | < 500 |
| NC(=O)c1ccc(C(=O)N[C@H]2C[C@H]3CC[C@@H](C2)N3c2ccc(C(=O)CCC(F)(F)F)cn2)cc1NCC1CC1 [2-[(cyclopropylmethyl)amino]-N4-{8-[5-(4,4,4-trifluorobutanoyl)pyridin-2-yl]-8-azabicyclo[3.2.1]oct-3-endo-yl}benzene-1,4-dicarboxamide] | 2000 to 10000 |
| CC[C@@H](C)Nc1c(C(N)=O)cc(C)c(C(=O)NC2CC3CCC(C2)N3c2ccc(C(=O)C3CC3)cn2)c1Cl (stereo partly drawn) [3-chloro-N4-{8-[5-(cyclopropylcarbonyl)pyridin-2-yl]-8-azabicyclo[3.2.1]oct-3-endo-yl}-5-methyl-2-{[(1R)-1-methylpropyl]amino}benzene-1,4-dicarboxamide] | < 500 |
| CCN1CC[C@H](NC(=O)c2ccc(N3C4CCC3CC(NC(=O)c3cc(C)c(C(N)=O)cc3C)C4)nc2)C1 (stereo partly drawn) [N-{8-[5-({[(3S)-1-ethylpyrrolidin-3-yl]amino}carbonyl)pyridin-2-yl]-8-azabicyclo[3.2.1]oct-3-endo-yl}-2,5-dimethylbenzene-1,4-dicarboxamide] | < 500 |
| COc1cccc(C(=O)N[C@H]2C[C@H]3CC[C@@H](C2)N3c2ccc(C(=O)NC(C)C)cn2)c1C [N-(1-methylethyl)-6-[3-endo-({[2-methyl-3-(methyloxy)phenyl]carbonyl}amino)-8-azabicyclo[3.2.1]oct-8-yl]pyridine-3-carboxamide] | 1000 to 2000 |
| COc1cccc(C(=O)N[C@H]2C[C@H]3CC[C@@H](C2)N3c2ccc(C(=O)NCc3ccccc3)cn2)c1CCCNC(C)C [6-[3-endo-({[2-{3-[(1-methylethyl)amino]propyl}-3-(methyloxy)phenyl]carbonyl}amino)-8-azabicyclo[3.2.1]oct-8-yl]-N-(phenylmethyl)pyridine-3-carboxamide] | 1000 to 2000 |
| COc1ccc(CCNC(=O)c2ccc(N3[C@@H]4CC[C@H]3C[C@@H](NC(=O)c3cccc(OC)c3C)C4)nc2)cc1OC [N-{2-[3,4-bis(methyloxy)phenyl]ethyl}-6-[3-endo-({[2-methyl-3-(methyloxy)phenyl]carbonyl}amino)-8-azabicyclo[3.2.1]oct-8-yl]pyridine-3-carboxamide] | 2000 to 10000 |
| CCCCNc1cc(C(=O)N[C@H]2C[C@H]3CC[C@@H](C2)N3c2ccc(C(=O)C3CC3)cn2)ccc1C(N)=O [2-(butylamino)-N4-{8-[5-(cyclopropylcarbonyl)pyridin-2-yl]-8-azabicyclo[3.2.1]oct-3-endo-yl}benzene-1,4-dicarboxamide] | < 500 |
| Cc1cnc(CNC(=O)c2ccc(N3[C@@H]4CC[C@H]3C[C@@H](NC(=O)c3ccc(C(N)=O)cc3)C4)nc2)cn1 [N-{8-[5-({[(5-methylpyrazin-2-yl)methyl]amino}carbonyl)pyridin-2-yl]-8-azabicyclo[3.2.1]oct-3-endo-yl}benzene-1,4-dicarboxamide] | 1000 to 2000 |
| CC(=O)c1ccc(N2[C@@H]3CC[C@H]2C[C@@H](NC(=O)c2ccc(C(N)=O)c(NC4CCCC4)c2)C3)nc1 [N4-[8-(5-acetylpyridin-2-yl)-8-azabicyclo[3.2.1]oct-3-endo-yl]-2-(cyclopentylamino)benzene-1,4-dicarboxamide] | < 500 |
| CC(C)[C@H](C)Nc1cc(C(=O)NC2CC3CCC(C2)N3c2ccc(C(=O)C3CC3)cn2)ccc1C(N)=O (stereo partly drawn) [N4-{8-[5-(cyclopropylcarbonyl)pyridin-2-yl]-8-azabicyclo[3.2.1]oct-3-endo-yl}-2-{[(1S)-1,2-dimethylpropyl]amino}benzene-1,4-dicarboxamide] | < 500 |
| CC(=O)c1ccc(N2C3CCC2CC(NC(=O)c2ccc(C(N)=O)c(NCCN)c2)C3)nc1 (stereo not drawn) [N4-[8-(5-acetylpyridin-2-yl)-8-azabicyclo[3.2.1]oct-3-endo-yl]-2-[(2-aminoethyl)amino]benzene-1,4-dicarboxamide] | < 500 |
| COc1cccc(C(=O)NC2CC3CCC(C2)N3c2ccc(C(=O)N[C@H](C)C(C)C)cn2)c1C (stereo partly drawn) [N-[(1R)-1,2-dimethylpropyl]-6-[3-endo-({[2-methyl-3-(methyloxy)phenyl]carbonyl}amino)-8-azabicyclo[3.2.1]oct-8-yl]pyridine-3-carboxamide] | 2000 to 10000 |
| COc1cccc(C(=O)N[C@H]2C[C@H]3CC[C@@H](C2)N3c2ccc(C(=O)NCCCN3CCCC3=O)cn2)c1C [6-[3-endo-({[2-methyl-3-(methyloxy)phenyl]carbonyl}amino)-8-azabicyclo[3.2.1]oct-8-yl]-N-[3-(2-oxopyrrolidin-1-yl)propyl]pyridine-3-carboxamide] | 500 to 999 |
| NC(=O)c1ccc(C(=O)NC2CC3CCC(C2)N3c2ccc(C(=O)NC3CCCC3)cn2)cc1NCC1CC1 (stereo not drawn) [N4-(8-{5-[(cyclopentylamino)carbonyl]pyridin-2-yl}-8-azabicyclo[3.2.1]oct-3-endo-yl)-2-[(cyclopropylmethyl)amino]benzene-1,4-dicarboxamide] | < 500 |
| COc1cccc(C(=O)NC2CC3CCC(C2)N3c2ccc(C(=O)NC(C)c3c(F)cc(C4CCNCC4)cc3F)cn2)c1C (stereo not drawn) [N-[1-(2,6-difluoro-4-piperidin-4-ylphenyl)ethyl]-6-[3-endo-({[2-methyl-3-(methyloxy)phenyl]carbonyl}amino)-8-azabicyclo[3.2.1]oct-8-yl]pyridine-3-carboxamide] | 2000 to 10000 |
| COc1cccc([C@H](C)NC(=O)c2ccc(N3C4CCC3CC(NC(=O)c3cccc(OC)c3C)C4)nc2)c1 (stereo partly drawn) [6-[3-endo-({[2-methyl-3-(methyloxy)phenyl]carbonyl}amino)-8-azabicyclo[3.2.1]oct-8-yl]-N-{(1S)-1-[3-(methyloxy)phenyl]ethyl}pyridine-3-carboxamide] | < 500 |
| NC(=O)c1ccc(C(=O)N[C@H]2C[C@H]3CC[C@@H](C2)N3c2ccc(C(=O)CCc3ccccc3)cn2)cc1NCC1CC1 [2-[(cyclopropylmethyl)amino]-N4-{8-[5-(3-phenylpropanoyl)pyridin-2-yl]-8-azabicyclo[3.2.1]oct-3-endo-yl}benzene-1,4-dicarboxamide] | 2000 to 10000 |
| Cc1cc(C(=O)N[C@H]2C[C@H]3CC[C@@H](C2)N3c2ccc(C(=O)NCc3ccccc3)cn2)c(C)cc1C(N)=O [2,5-dimethyl-N-[8-(5-{[(phenylmethyl)amino]carbonyl}pyridin-2-yl)-8-azabicyclo[3.2.1]oct-3-endo-yl]benzene-1,4-dicarboxamide] | < 500 |
| Cc1c(O)cccc1C(=O)NC1CC2CCC(C1)N2c1ccc(C(=O)NCc2ccccc2)cn1 (stereo not drawn) [6-(3-endo-{[(3-hydroxy-2-methylphenyl)carbonyl]amino}-8-azabicyclo[3.2.1]oct-8-yl)-N-(phenylmethyl)pyridine-3-carboxamide] | 1000 to 2000 |

Next, values leading:

| IC50 [nM] | SMILES |
| --- | --- |
| < 500 | Cc1cc(C(N)=O)c(NCC2CCCC2)cc1C(=O)N[C@H]1C[C@H]2CC[C@@H](C1)N2c1ccc(C(=O)C2CC2)cn1 [5-[(cyclopentylmethyl)amino]-N-{8-[5-(cyclopropylcarbonyl)pyridin-2-yl]-8-azabicyclo[3.2.1]oct-3-endo-yl}-2-methylbenzene-1,4-dicarboxamide] |
| < 500 | C[C@H](NC(=O)c1ccc(N2C3CCC2CC(NC(=O)c2ccc(C(N)=O)c(NCC4CC4)c2)C3)nc1)c1ccc(N2CCN(C)CC2)cc1 (stereo partly drawn) [2-[(cyclopropylmethyl)amino]-N4-(8-{5-[({(1S)-1-[4-(4-methylpiperazin-1-yl)phenyl]ethyl}amino)carbonyl]pyridin-2-yl}-8-azabicyclo[3.2.1]oct-3-endo-yl)benzene-1,4-dicarboxamide] |
| < 500 | NC(=O)c1ccc(C(=O)N[C@H]2C[C@H]3CC[C@@H](C2)N3c2ccc(C(=O)NCc3ccccc3)cn2)cc1 [N-[8-(5-{[(phenylmethyl)amino]carbonyl}pyridin-2-yl)-8-azabicyclo[3.2.1]oct-3-endo-yl]benzene-1,4-dicarboxamide] |
| 500 to 999 | CCCCNC(=O)c1ccc(N2[C@@H]3CC[C@H]2C[C@@H](NC(=O)c2cccc(OC)c2C)C3)nc1 [N-butyl-6-[3-endo-({[2-methyl-3-(methyloxy)phenyl]carbonyl}amino)-8-azabicyclo[3.2.1]oct-8-yl]pyridine-3-carboxamide] |
| < 500 | CC(=O)c1ccc(N2C3CCC2CC(NC(=O)c2ccc(C(N)=O)c(N[C@H]4CCOC4)c2)C3)nc1 (stereo partly drawn) [N4-[8-(5-acetylpyridin-2-yl)-8-azabicyclo[3.2.1]oct-3-endo-yl]-2-[(3S)-tetrahydrofuran-3-ylamino]benzene-1,4-dicarboxamide] |
| < 500 | CCC(CC)Nc1cc(C(=O)N[C@H]2C[C@H]3CC[C@@H](C2)N3c2ccc(C(=O)CCC3CCN(C)CC3)cn2)c(C)cc1C(N)=O [5-[(1-ethylpropyl)amino]-2-methyl-N-(8-{5-[3-(1-methylpiperidin-4-yl)propanoyl]pyridin-2-yl}-8-azabicyclo[3.2.1]oct-3-endo-yl)benzene-1,4-dicarboxamide] |
| < 500 | COc1ccc([C@H](C)NC(=O)c2ccc(N3C4CCC3CC(NC(=O)c3cccc(OC)c3C)C4)nc2)cc1 (stereo partly drawn) |
| < 500 | CC[C@@H](C)Nc1cc(C(=O)NC2CC3CCC(C2)N3c2ccc(C(=O)C3CC3)cn2)c(C)cc1C(N)=O (stereo partly drawn) [N-{8-[5-(cyclopropylcarbonyl)pyridin-2-yl]-8-azabicyclo[3.2.1]oct-3-endo-yl}-2-methyl-5-{[(1R)-1-methylpropyl]amino}benzene-1,4-dicarboxamide] |
| < 500 | CC(=O)c1ccc(N2[C@@H]3CC[C@H]2C[C@@H](NC(=O)c2ccc(C(N)=O)c(NCC4CCCO4)c2)C3)nc1 (stereo partly drawn) [N4-[8-(5-acetylpyridin-2-yl)-8-azabicyclo[3.2.1]oct-3-endo-yl]-2-[(tetrahydrofuran-2-ylmethyl)amino]benzene-1,4-dicarboxamide] |
| < 500 | Cc1cc(C(=O)N[C@H]2C[C@H]3CC[C@@H](C2)N3c2ccc(C(=O)N[C@@H]3CCN(C(C)C)C3)cn2)c(C)cc1C(N)=O [2,5-dimethyl-N-{8-[5-({[(3R)-1-(1-methylethyl)pyrrolidin-3-yl]amino}carbonyl)pyridin-2-yl]-8-azabicyclo[3.2.1]oct-3-endo-yl}benzene-1,4-dicarboxamide] |
